Measurements as given in US20080299109A1, “MECHANISM OF ASTRICYTE-NEURON SIGNALING” (Korea Institute of Science and Technology, priority 2007, published 2008).

Key:
[1] = system: PAR1−/− cortical neurons on wild-type astrocyte monolayer; assay: PAR1−/− cortical neurons co-cultured on wild-type astrocytes: dendritic Ca2+ and voltage clamp; format: cell-based, mouse; settings: 300 μM TFLLR pressure-applied to astrocytes; 50 μM NMDA
Description: For an astrocyte-neuron co-culture, a monolayer of wild-type astrocytes was grown to 70-100% confluency (7-14 days in culture). Subsequently, the cortex from a P0 to P5 PAR1−/− mouse (Connolly et al., 1996) was dissected free of meninges and digested for 30 min in 1 mg/ml trypsin at 37° C. PAR1−/− mice were >99% C57B1/6 (>7 backcrossings), and wild-type mice were from a colony derived from PAR1−/− littermates.
All experiments were done within 3 generations of establishing the homozygous colony. The cortical cells were plated at low density on top of the monolayer of wild-type astrocytes obtained in above Example 1.1. Neurons were used for Ca^2+ imaging after 1-5 days in culture.
(§1) Whole-cell perforated-patch recording from cultured cortical neurons or HEK cells under voltage clamp (holding potential −60 mV) was made with an Axopatch 200B amplifier (Axon Instruments, Union City, Calif.). The recording chamber was continually perfused with a recording solution comprised of 150 mM NaCl, 3 mM KCl, 2 mM CaCl2, 5.5 mM glucose, and 10 mM HEPES (pH 7.4 by NaOH; osmolality adjusted to 315-320 mOsm with sucrose). Recording electrodes (4-7 MΩ) were filled with (in mM) 150 mM CsMeSO4, 10 mM NaCl, 0.5 CaCl2, 10 mM HEPES, and 25-50 μg/ml gramicidin D (pH adjusted to 7.3 with CsOH and osmolality adjusted to 310 mOsm with sucrose). It took 20-30 min to achieve acceptable perforation with series resistance ranging from 30-60 MΩ. All electrophysiological data from cultured neurons cells in this study were collected at room temperature (23-26° C.).
After a 20 min recovery, the bath perfusion was stopped and TFLLR was applied by brief (<1 sec) pressure ejection onto the astrocyte hosting the dye-loaded neuron in a static bath condition. Changes in fluorescence were monitored in a number of dendritic processes (schematized in FIGS. 8a and 8b).

[2] = system: cultured wild-type mouse astrocytes; assay: Fura-2 intracellular Ca2+ imaging in cultured wild-type astrocytes; format: cell-based; settings: 30 μM TFLLR; for level of astrocytic intracellular Ca^2+ (Fura-2 fluorescence ratio): 10 μM bradykinin, 50 μM 2-methyl-thio-ATP, 10 μM ATP, 30 nM thrombin; for effect on TFLLR-induced Ca^2+ response: 1 μM BMS200261, 1 μM thapsigargin, 50 μM BAPTA-AM 30 min, 2 μM U-73122 10 min
Description: Cultured astrocytes were prepared from P0-P3 postnatal mice obtained from KIST SPF. The cerebral cortex was dissected free of adherent meninges, minced, and dissociated into single cell suspension by trituration through a Pasteur pipette. All procedures involving the use of animals were reviewed and approved by the Emory University IACUC. Dissociated cells were plated onto either 12 mm glass coverslips or 6 well plates coated with 0.1 mg/ml poly-D-lysine. Cells were grown in a DMEM media (Gibco, cat# 11960-044) supplemented with 25 mM glucose, 10% heat-inactivated horse serum, and 10% heat-inactivated fetal bovine serum, 2 mM glutamine, and 1000 units/ml penicillin-streptomycin. Cultures were maintained at 37° C. in a humidified 5% CO2-containing atmosphere. […] In some experiments, the culture media was replaced 24 hours after plating with DMEM with all added components except glutamine, and cultures were maintained for 4 days before experimentation in glutamine-free media.
Cultured astrocytes were incubated with 5 µM Fura2-AM in […] pluronic acid (Molecular Probes) for 30 min at room temperature, and subsequently transferred to a microscope stage for imaging. The external solution contained 150 mM NaCl, 10 mM HEPES, 3 mM KCl, 2 mM CaCl2, 2 mM MgCl2, and 5.5 mM glucose, and the pH was adjusted to pH 7.3 and osmolarity to 325 mOsm. Intensity images of a 510 nm wavelength were taken at 340 nm and 380 nm excitation wavelengths using either a Micromax Camera (Princeton) or an intensified video camera (PTI), and the two resulting images were used for ratio calculations using Axon Imaging Workbench version 2.2.1.

[3] = system: PAR1−/− mouse astrocytes; assay: Fura-2 intracellular Ca2+ imaging in cultured PAR1−/− astrocytes; format: cell-based; settings: 30 μM TFLLR, 30 nM thrombin, 10 μM ATP positive control
Description: Cultured astrocytes were prepared from P0-P3 postnatal mice obtained from KIST SPF. The cerebral cortex was dissected free of adherent meninges, minced, and dissociated into single cell suspension by trituration through a Pasteur pipette. All procedures involving the use of animals were reviewed and approved by the Emory University IACUC. Dissociated cells were plated onto either 12 mm glass coverslips or 6 well plates coated with 0.1 mg/ml poly-D-lysine. Cells were grown in a DMEM media (Gibco, cat# 11960-044) supplemented with 25 mM glucose, 10% heat-inactivated horse serum, and 10% heat-inactivated fetal bovine serum, 2 mM glutamine, and 1000 units/ml penicillin-streptomycin. Cultures were maintained at 37° C. in a humidified 5% CO2-containing atmosphere. Astrocyte cultures prepared in this way were previously determined by GFAP (glial fibrillary acidic protein) staining to be greater than 95% astrocytes (Nicole et al., 2005). In some experiments, the culture media was replaced 24 hours after plating with DMEM with all added components except glutamine, and cultures were maintained for 4 days before experimentation in glutamine-free media.
Cultured astrocytes were incubated with 5 µM Fura2-AM in […] pluronic acid (Molecular Probes) for 30 min at room temperature, and subsequently transferred to a microscope stage for imaging. […]

[4] = system: wild-type astrocytes; assay: Sniffer-patch detection of glutamate release, GluR1(L497Y)-transfected HEK cells on wild-type astrocytes; format: cell-based, mouse
Description: HEK 293 cells (ATCC1573) were plated onto 12 mm glass coverslips coated with 5-10 ug/ml poly-D-lysine and grown in a DMEM media (Gibco, cat# 11960-044) supplemented with 25 mM glucose, 10% heat-inactivated horse serum, and 10% heat-inactivated fetal bovine serum, 2 mM glutamine, and 1000 units/ml penicillin-streptomycin (Banke & Traynelis, 2000; Traynelis & Wahl, 1996). The obtained cultures were maintained at 37° C. in a humidified 5% CO2-containing atmosphere.
HEK 293 cells were transfected with a 1:3.5 ratio of GFP and GluR1(L497Y) using the calcium phosphate method using effectence for 6-8 hours, after which the media was replaced and supplemented with 1 mM kynurenic acid and 10 μM N-(4-hydroxyphenylpropanoyl) spermine or 10 μM CNQX. The transfected HEK cells were subsequently trypsinized and replated onto astrocyte feeder layers derived from either wild-type or PAR1−/− mice 24 hours post-transfection, and recordings performed 24 hours after replating.
as §1
Thus, this technique provides millisecond time resolution for the detection of micromolar levels of glutamate released from astrocytes.
GluR1(L497Y)-transfected HEK cells were directly plated onto an astrocyte monolayer, and subsequently the whole cell HEK current response under voltage clamp during a brief 0.2 sec application of the PAR1 activator TFLLR (500 μM), ATP (300 μM), or bradykinin (180 μM), respectively, from a pressurized pipette was recorded (FIGS. 5a, and 5b).
Concentration(t)=EC50[response(t)/(100−response(t))]^(1/n) (Formula 1)

[5] = system: CA1 pyramidal neurons; assay: Ca2+ dye imaging of CA1 pyramidal neurons in hippocampal slices; format: cell-based, rat; settings: thrombin 30 nM, TFLLR 30 μM, trans-ACPD 100 μM, (S)-3,5-dihydroxyphenylglycine 30 μM
Description: Young rats (Sprague-Dawley, age P15-P20) or mice (C57/B16, age P14-19) were deeply anesthetized with isoflurane and decapitated. The brain was rapidly removed and submerged in an ice-cold oxygenated artificial cerebrospinal fluid (ACSF) comprised of 130 mM NaCl, 24 mM NaHCO3, 3.5 mM KCl, 1.25 mM NaH2PO4, 1 mM CaCl2,3 mM MgCl2, and 10 mM glucose saturated with 95% O2/5% CO2, at pH 7.4.
The external solution contained 1 μM TTX. Throughout the experiments, −5 mV voltage steps (15 ms duration) were applied at 30 sec intervals from a holding potential of −70 mV to continuously monitor the holding current, series resistance, and membrane input resistance. After entering whole-cell mode, the CA1 pyramidal cells in slices were maintained for 20 min to allow for dye filling before image acquisition using a Princeton Micromax camera.
After the baseline period, TFLLR (30-100 μM) was applied, and images were acquired every 3 sec with a 25 ms exposure to 450-490 nm light for each image. Ca^2+-dependent fluorescence intensity (520 nm) was measured in cell bodies and processes by using Axon Imaging Workbench (v2.2.1) and expressed as ratio image of (F-Fo)/Fo, where Fo is the fluorescence intensity before drug treatment.

[6] = target: T1, GluR1(L497Y) (Rattus norvegicus, UniProt P19490, L497Y); assay: Glutamate activation of GluR1(L497Y) in transfected HEK cells; format: cell-based
T1 construct: expressed in transfected cells; host or cells: HEK 293 cells (ATCC1573)
T1 sequence (P19490 19-907 L497Y): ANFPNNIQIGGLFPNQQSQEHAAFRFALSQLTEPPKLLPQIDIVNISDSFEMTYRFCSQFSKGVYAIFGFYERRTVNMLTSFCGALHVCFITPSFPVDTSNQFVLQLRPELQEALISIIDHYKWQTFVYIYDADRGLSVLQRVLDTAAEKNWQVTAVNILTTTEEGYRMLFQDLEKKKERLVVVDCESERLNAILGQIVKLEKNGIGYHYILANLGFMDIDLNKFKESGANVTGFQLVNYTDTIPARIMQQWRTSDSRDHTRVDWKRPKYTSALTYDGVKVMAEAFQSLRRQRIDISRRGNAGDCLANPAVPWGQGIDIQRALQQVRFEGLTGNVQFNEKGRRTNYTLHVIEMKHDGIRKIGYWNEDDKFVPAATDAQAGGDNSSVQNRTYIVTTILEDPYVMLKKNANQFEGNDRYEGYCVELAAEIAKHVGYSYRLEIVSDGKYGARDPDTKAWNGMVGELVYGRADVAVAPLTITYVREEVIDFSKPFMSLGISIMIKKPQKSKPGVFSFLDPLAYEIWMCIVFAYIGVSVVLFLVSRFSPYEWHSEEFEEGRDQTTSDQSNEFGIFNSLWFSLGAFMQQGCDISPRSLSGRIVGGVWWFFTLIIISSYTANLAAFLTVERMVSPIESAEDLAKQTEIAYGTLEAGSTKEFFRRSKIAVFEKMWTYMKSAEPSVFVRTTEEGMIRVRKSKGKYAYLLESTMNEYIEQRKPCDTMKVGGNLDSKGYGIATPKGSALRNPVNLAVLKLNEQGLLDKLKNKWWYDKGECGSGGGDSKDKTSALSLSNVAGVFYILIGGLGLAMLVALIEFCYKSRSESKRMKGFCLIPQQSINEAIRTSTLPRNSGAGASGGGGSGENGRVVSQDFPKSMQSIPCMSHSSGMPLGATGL
Description: HEK 293 cells were transfected with a 1:3.5 ratio of GFP and GluR1(L497Y) using the calcium phosphate method using effectence for 6-8 hours, after which the media was replaced and supplemented with 1 mM kynurenic acid and 10 μM N-(4-hydroxyphenylpropanoyl) spermine or 10 μM CNQX.
as §1

[7] = system: cultured neurons; assay: Sniffer-patch glutamate release from cultured neurons; format: cell-based; settings: 10 μM CNQX, 530 mOsm
Description: To verify this prediction, effects of a hyperosmotic solution on the glutamate-release from cultured neurons and astrocytes were evaluated and are shown in FIGS. 7a to 7c.
The detection is abolished by the treatment of 10 μM CNQX.

[8] = system: cultured astrocytes; assay: 3H-glutamate release assay in cultured wild-type astrocytes; format: cell-based, mouse; settings: 50 μM BAPTA-AM 30 min; 50 μM trans-PDC present or absent
Description: Astrocytes obtained in the above Example 1.1 were loaded with 0.5 μM L-3H-glutamate for 60 min by adding […] of 1 mCi/ml L-3H-glutamate stock solution to 2 ml of DMEM culture media.
Cells were washed with an external solution 3 times.
Agonists (TFLLR 30 μM) were added to the external solution for 6 min and the experiment was terminated by collection of the solution. Each experimental run included a control condition in which no agonist was added. Six replicates were obtained for each drug condition. For analysis, the average radioactivity count was obtained from 6 replicates for each condition and this average was compared to the average of the control condition.
Cells were washed with an external solution and subsequently TFLLR (30 μM) was added for 6 min. […] In the top panel, the thick boxes represent cells in culture media and the white boxes represent cells in external solution.

[9] = system: glutamate transporters; settings: read-out: IC50 glutamate uptake block; Mitrovic & Johnston, 1994; cited from earlier work

With `CN[C@H](CC(=O)O)C(=O)O` [NMDA, N-methyl-D-aspartic acid] as the compound, how does the “intra-neuronal Ca^2+ in dendrites (Oregon Green BAPTA-2 fluorescence)” value [1] read?
Its value is “saturating response”.

Which results are given for `Nc1ncnc2c1ncn2[C@@H]1O[C@H](COP(=O)(O)OP(=O)(O)OP(=O)(O)O)[C@@H](O)[C@H]1O` [ATP]?
level of astrocytic intracellular Ca^2+ (Fura-2 fluorescence ratio) [2]: increase; intracellular Ca^2+ concentration in PAR1−/− astrocytes [3]: still responded; inward current in adjacent GluR1(L497Y)-transfected HEK cell ([4]; brief pressure application 500 μM TFLLR, 300 μM ATP, 180 μM bradykinin): elicited an inward current; peak glutamate concentration ([4]; wild-type astrocytes, converted from current by Formula 1): ~5.9 µM

With `CSc1nc(N)c2ncn([C@@H]3O[C@H](COP(=O)(O)OP(=O)(O)OP(=O)(O)O)[C@@H](O)[C@H]3O)c2n1` [2-methyl-thio-ATP] as the compound, how does the “level of astrocytic intracellular Ca^2+ (Fura-2 fluorescence ratio)” value [2] read?
The value was “increase”.

Which “somatic fluorescence of Ca^2+-sensitive dyes in CA1 pyramidal neurons” value [5] does the source give for `N[C@H](C(=O)O)c1cc(O)cc(O)c1` [(S)-3,5-dihydroxyphenylglycine] here?
The value was “strong increases”.

For `C/C=C(/C)C(=O)O[C@H]1C(C)=C2[C@H]([C@@H]1OC(=O)CCCCCCC)[C@@](C)(OC(C)=O)C[C@H](OC(=O)CCC)[C@@]1(O)[C@H]2OC(=O)[C@@]1(C)O` [thapsigargin], which “effect on TFLLR-induced Ca^2+ response” value [2] is on record?
The value was “blocked”.

With “trans-Cinnamoyl-F(f)-F(Gn)L-Arg-Arg-NH2 [BMS 200261]” as the compound, how does the “effect on TFLLR-induced Ca^2+ response” value [2] read?
The value was “reversibly and completely antagonized”.

With `COc1ccc2c(c1)CC[C@@H]1[C@@H]2CC[C@]2(C)[C@@H](NCCCCCCN3C(=O)C=CC3=O)CC[C@@H]12` [U-73122] as the compound, how does the “effect on TFLLR-induced Ca^2+ response” value [2] read?
Its value is “similarly blocked”.

Which Hill slope [6] does the source give for `N[C@@H](CCC(=O)O)C(=O)O` [glutamate] here?
The Hill slope was 1.3.

For `N#Cc1cc2[nH]c(=O)c(=O)[nH]c2cc1[N+](=O)[O-]` [CNQX], which “effect on TFLLR-evoked inward current in GluR1(L497Y) HEK cell” value ([4]; 10 μM CNQX) is on record?
Its value is “reversibly inhibits”.

And the “effect on TFLLR-evoked inward currents, glutamine-free medium” value ([4]; glutamine-free medium)?
The value was “completely abolished”.

And the “effect on detection of hyperosmotic-solution evoked neuronal glutamate release” value [7]?
Its value is “abolished”.

With `O=C(O)[C@H]1CN[C@H](C(=O)O)C1` [trans-PDC, L-transpyrrolidine-2,4-dicarboxylic acid] as the compound, how does the “effect on TFLLR-induced glutamate release” value [8] read?
Its value is “indistinguishable”.

What about the IC50 [9] of the same compound?
Its IC50 is 4 to 8 µM.

With `CC(=O)OCOC(=O)CN(CC(=O)OCOC(C)=O)c1ccccc1OCCOc1ccccc1N(CC(=O)OCOC(C)=O)CC(=O)OCOC(C)=O` [BAPTA-AM, 1,2-bis(2-aminophenoxy)ethane-N,N,N′,N′-tetra-acetic acid acetoxymethyl ester] as the compound, how does the “effect on TFLLR-induced glutamate release” value [8] read?
Its value is “blocked”.
